This is an account of results in PubChem BioAssay (NCI).

SMILES strings stand for the structures. Several values for one entry are separate records, joined by “and”; a condition that tells them apart may be missing. Equal entries are not always repeated.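 Tested at 5 concentrations; 48 h exposure; 96-well plates; endpoints linearly interpolated, else capped at highest concentration. The concentration for 50% growth inhibition is given as GI50. Definition used: TGI = concentration required for complete inhibition of growth.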

Holding throughout (test): inhibition of tumour cell growth, NCI panel, 48 h
Assay [1] has as its system OVCAR-5 ovarian.
Assay [2] has as its system 786-0 renal.
Assay [3] deals with OVCAR-3 ovarian.
For assay [4], the system named is A498 renal.
Assay [5] deals with SNB-75 CNS.
Assay [6] deals with MOLT-4 leukemia.
For assay [7], the system named is KM12 colon.
The subject of assay [8] is TK-10 renal.
For assay [9], the system named is SF-268 CNS.
In assay [10] the test system is HCT-116 colon.
The test system of assay [11] is EKVX NSCLC.
The test system of assay [12] is HOP-92 NSCLC.

Take `CCOC(=O)c1ccn2c(c1)c(C#N)c1nc3ccccc3nc12`: the TGI in assay [1] was above 100 µM; in assay [2], above 100 µM; in assay [3] it was above 100 µM; in [4], above 100 µM; in [5], above 100 µM; in assay [6], 50.6 µM. Moreover, the TGI in assay [7], in assay [8], in [9], in [10] and in [11] was above 100 µM throughout.
As for `C/C=C1/C(=Cc2[nH]c(C=c3[nH]/c(=C/C4=NC(=O)C(CC)=C4C)c(C)c3CCC(=O)O)c(CCC(=O)O)c2C)NC(=O)C1C` (stereo not drawn), the TGI in assay [1] was 27.4 µM; in [2], above 50 µM; in assay [3], above 50 µM; in assay [5] it was above 50 µM; in assay [6], 37.2 µM; in assay [7] it was above 50 µM. Besides, the TGI in assay [8] was above 50 µM; in [9], above 50 µM; in assay [10], above 50 µM; in assay [11] it was above 50 µM; in assay [12], 15.9 µM.
Consider `COC(=O)/C(=N\N)C(C(=O)C(=O)Nc1nc(=S)[nH][nH]1)c1nc2ccc([N+](=O)[O-])cc2[nH]c1=O` (stereo not drawn), for which the TGI in [1], in [2], in assay [3], in [4], in assay [5] and in [6] was above 100 µM throughout. Further, the TGI in assay [7], in assay [8], in [9], in [10], in [11] and in assay [12] was above 100 µM each time.
Turning to `C/C(=C\CC/C=C(\C)CC/C=C(\C)CCC1SC1(C)C)CC/C=C(\C)CCC1OC1(C)C` (stereo not drawn), the TGI in assay [2], in assay [3], in assay [4], in assay [5], in [6] and in assay [7] was above 100 µM in each case. The TGI in assay [8], in [9], in assay [10], in [11] and in assay [12] was above 100 µM throughout.
Consider `COc1cc2c(cc1OC)[C@H]1C(COC(=O)Nc3ccccc3)CN1CC2` (stereo partly drawn), for which the TGI is above 100 µM in assay [1]; above 100 µM in assay [2]; above 100 µM in assay [3]; above 100 µM in assay [4]; 79.3 µM in [5]; above 100 µM in assay [6]. In addition, the TGI in [7], in [8], in assay [9], in [10] and in [12] was above 100 µM each time.
In the case of `Cc1cc(C)c(C(=O)C(C)C(c2ccccc2)c2ccc(Cl)cc2)c(C)c1` (stereo not drawn), the TGI in [2], in assay [3], in assay [5], in assay [6], in assay [7] and in [8] was above 100 µM in each case. The TGI in assay [9], in assay [10], in assay [11] and in assay [12] was above 100 µM each time. In assay [12], the GI50 is 47.4 µM and > 100 µM.
Take `CC(=O)OCC1=CC2CCC3C(C)(CCC[C@]3(C)COC(C)=O)C23CC[C@H]1C3` (stereo partly drawn): the TGI was above 100 µM in assay [1]; above 100 µM in [2]; above 100 µM in assay [3]; above 100 µM in assay [4]; above 100 µM in assay [5]; 51.5 µM in assay [6]. Further, the TGI in [7] was above 100 µM; in assay [8], above 100 µM; in assay [9], above 100 µM; in assay [10] it was above 100 µM; in assay [11] it was above 100 µM; in [12], 90.2 µM.
For the molecule `COC1(C)CNCC(C)(C)NC(=O)C(C)(OC)CNCC(C)(C)NC1=O` (stereo not drawn), the TGI in assay [1], in assay [2], in [3], in assay [4], in assay [5] and in assay [6] was above 100 µM each time. The TGI in assay [7], in assay [8], in [9], in assay [10], in assay [11] and in assay [12] was above 100 µM throughout.
For the molecule `O=S(=O)(CF)OCCCCOS(=O)(=O)CF`, the TGI in assay [3], in assay [4], in assay [5], in assay [6], in [8] and in assay [9] was above 100 µM in each case. For the same molecule, the TGI in assay [10] is above 100 µM; in [11], above 100 µM; in assay [12], 82.6 µM.
As to `COC(=O)C(C#N)C1NC(=O)c2ccccc21` (stereo not drawn), the TGI in assay [1], in [2], in [3], in assay [4], in assay [5] and in assay [6] was above 100 µM throughout. In addition, the TGI in assay [7], in [8], in assay [9], in [10], in [11] and in assay [12] was above 100 µM each time.
Turning to `CCCCCCCCCCCCCCCCCCOCC(O)CO` (stereo not drawn), the TGI in assay [1] is above 25 µM; in assay [3], above 25 µM; in assay [4], above 3.96 µM; in assay [5] it was 24.8 µM; in assay [6], above 25 µM; in [7], above 25 µM. Also, the TGI in assay [9] was above 25 µM; in [10], above 25 µM; in [11], above 14.1 µM; in assay [12] it was 24.7 µM.
Consider `CC(=O)OCC1OC(n2c(O)c(N=NC(N)=S)c3ccc([N+](=O)[O-])cc32)C(OC(C)=O)C1OC(C)=O` (stereo not drawn), for which the TGI is above 100 µM in [1]; 44.4 µM in assay [2]; 63.9 µM in assay [3]; 82.8 µM in assay [5]; 54.9 µM in assay [6]; above 100 µM in assay [7]. In addition, the TGI in [8] is above 100 µM; in assay [9], above 100 µM; in [10], 29.5 µM; in assay [11], above 100 µM; in assay [12], above 100 µM.
